Several values for one entry are separate records, joined by “and”; a condition that tells them apart may be missing. Equal values may be shown once. Records with an inconclusive call do not appear.
System: Nude mice, LX-1 lung xenograft intrarenal, tumor weight T/C
Assay: NCI In Vivo Anticancer Drug Screen. Data for tumor model Human Lung LX-1 Xenograft (intrarenal inoculation) in NU/NU BALB/C (nude) mice
Conditions: endpoint: mean tumor weight change, higher = larger tumour
Protocol: The antitumor activity of compounds was measured in mice bearing transplantable tumors. Survival or tumor size were measured and the results are expressed as the measurement made in the treated group (T) divided by the measurement made in the vehicle treated control group (C). The tumor model used in this assay is Human Lung LX-1 Xenograft (intrarenal inoculation) in NU/NU BALB/C (nude) mice

[1] = dose: 50.0 mg/kg/injection, schedule: Q01DX010 (sc), vehicle: saline with Tween-80
[2] = dose: 200.0 mg/kg/injection, schedule: Q01DX010 (sc), vehicle: saline with Tween-80
[3] = dose: 2.0 mg/kg/injection, schedule: Q01DX010 (sc), vehicle: saline
[4] = dose: 400.0 mg/kg/injection, schedule: Q01DX010 (sc), vehicle: saline with Tween-80
[5] = dose: 300.0 mg/kg/injection, schedule: Q04DX003 (sc), vehicle: water
[6] = dose: 400.0 mg/kg/injection, schedule: Q04DX003 (sc), vehicle: saline

[Na+]
T/C (dose: 150.0 mg/kg/injection, schedule: Q04DX003 (ip), vehicle: water): 68 % of control | T/C (dose: 600.0 mg/kg/injection, schedule: Q04DX003 (ip), vehicle: water): 82 % of control | T/C (dose: 1200.0 mg/kg/injection, schedule: Q04DX003 (ip), vehicle: water): 79 % of control

CC(C)CCCCCCCCCCCCC(=O)NCC(=O)NC1C(C)OC(Nc2ncnc3nc[nH]c23)C(O)C1O (stereo not drawn)
T/C (dose: 2.0 mg/kg/injection, schedule: Q01DX010 (sc), vehicle: saline with Tween-80): 69 % of control | T/C (dose: 4.0 mg/kg/injection, schedule: Q01DX010 (sc), vehicle: saline with Tween-80): 40 % of control | T/C (dose: 8.0 mg/kg/injection, schedule: Q01DX010 (sc), vehicle: saline with Tween-80): 32 % of control | T/C (dose: 16.0 mg/kg/injection, schedule: Q01DX010 (sc), vehicle: saline with Tween-80): 17 % of control

CCCCNc1ccc2nnc(C)n2n1
T/C (dose: 150.0 mg/kg/injection, schedule: Q04DX003 (ip), vehicle: DMSO): 99 % of control

c1ccc2c(NCCCCCCCCNc3c4ccccc4nc4ccccc34)c3ccccc3nc2c1
T/C (dose: 5.0 mg/kg/injection, schedule: Q01DX010 (sc), vehicle: Klucel (hydroxypropylcellulose) (HPC)): 60 % of control | T/C (dose: 10.0 mg/kg/injection, schedule: Q01DX010 (sc), vehicle: Klucel (hydroxypropylcellulose) (HPC)): 76 % of control | T/C (dose: 20.0 mg/kg/injection, schedule: Q01DX010 (sc), vehicle: Klucel (hydroxypropylcellulose) (HPC)): 23 % of control | T/C (dose: 40.0 mg/kg/injection, schedule: Q01DX010 (sc), vehicle: Klucel (hydroxypropylcellulose) (HPC)): 36 % of control

CCOC(=O)c1c[nH]c2oc(/C=N/N3CC(CN4CCOCC4)OC3=O)cc2c1=O (stereo not drawn)
T/C (dose: 50.0 mg/kg/injection, schedule: Q01DX010 (sc), vehicle: saline): 81 % of control | T/C (dose: 200.0 mg/kg/injection, schedule: Q01DX010 (sc), vehicle: saline): 118 % of control

COc1ccc(S(=O)(=O)N/N=C/C(=O)O)cc1
T/C [1]: 210 % of control | T/C (dose: 100.0 mg/kg/injection, schedule: Q01DX010 (sc), vehicle: saline with Tween-80): 119 % of control | T/C [2]: 72 % of control

N#Cc1cn(C2OC(CO)C(O)C2O)c2ncnc(N)c12 (stereo not drawn)
T/C (dose: 1.0 mg/kg/injection, schedule: Q01DX010 (sc), vehicle: saline): 26 % of control | T/C [3]: 77 % of control

CCC1=C[C@H]2CN(CCc3c([nH]c4ccccc34)[C@@](C(=O)OC)(c3cc4c(cc3OC)N(C)[C@H]3[C@@](O)(C(=O)NC)[C@H](OC(C)=O)[C@]5(CC)C=CCN6CC[C@]43[C@@H]65)C2)C1
T/C (dose: 1.0 mg/kg/injection, schedule: Q04DX003 (sc), vehicle: water): 30 % of control

O=[N+]([O-])O.O=[N+]([O-])O.[NH-]C1CCCCC1[NH-].[Pt+2] (stereo not drawn)
T/C (dose: 0.5 mg/kg/injection, schedule: Q01DX010 (sc), vehicle: dextrose): 76 % of control | T/C (dose: 1.0 mg/kg/injection, schedule: Q01DX010 (sc), vehicle: dextrose): 80 % of control

CC1(CO)C(O)CCC2(C)C1CCC1CC3CC12CCC3(O)CO (stereo not drawn)
T/C [1]: 86 % of control | T/C [4]: 34 % of control

N=C(N)c1ccc(/C=C/c2ccc(C(=N)N)cc2O)cc1
T/C (dose: 37.5 mg/kg/injection, schedule: Q04DX003 (sc), vehicle: water): 86 % of control | T/C (dose: 75.0 mg/kg/injection, schedule: Q04DX003 (sc), vehicle: water): 56 % of control | T/C (dose: 150.0 mg/kg/injection, schedule: Q04DX003 (sc), vehicle: water): 101 % of control | T/C [5]: 43 % of control

Oc1cc2ccccc2c(-c2c(O)c(O)cc3ccccc23)c1O
T/C (dose: 600.0 mg/kg/injection, schedule: Q04DX003 (sc), vehicle: saline with Tween-80): 122 % of control | T/C (dose: 1200.0 mg/kg/injection, schedule: Q04DX003 (sc), vehicle: saline with Tween-80): 95 % of control | T/C (dose: 2400.0 mg/kg/injection, schedule: Q04DX003 (sc), vehicle: saline with Tween-80): 84 % of control

O=C1N[C@H]2[C@H](CS[C@H]2CCCCC(=O)N(CCP(c2ccccc2)c2ccccc2)CCP(c2ccccc2)c2ccccc2)N1
T/C (dose: 300.0 mg/kg/injection, schedule: Q04DX003 (sc), vehicle: Klucel (hydroxypropylcellulose) (HPC)): 84 % of control | T/C (dose: 600.0 mg/kg/injection, schedule: Q04DX003 (sc), vehicle: Klucel (hydroxypropylcellulose) (HPC)): 64 % of control | T/C (dose: 1200.0 mg/kg/injection, schedule: Q04DX003 (sc), vehicle: Klucel (hydroxypropylcellulose) (HPC)): 87 % of control | T/C (dose: 2400.0 mg/kg/injection, schedule: Q04DX003 (sc), vehicle: Klucel (hydroxypropylcellulose) (HPC)): 71 % of control

CCC(C(=O)O)C(=O)O.[NH-]CC1CCCC[N-]1.[Pt+2]
T/C (dose: 100.0 mg/kg/injection, schedule: Q04DX003 (sc), vehicle: saline): 114 % of control | T/C (dose: 200.0 mg/kg/injection, schedule: Q04DX003 (sc), vehicle: saline): 90 % of control | T/C [6]: 60 % of control

N[C@H](C(=O)O)[C@@H]1CC(Cl)=NO1
T/C (dose: 0.5 mg/kg/injection, schedule: Q01DX010 (sc), vehicle: saline): 44 % of control | T/C [3]: 223 % of control and 82 % of control | T/C (dose: 2.0 mg/kg/injection, schedule: Q02DX005 (sc), vehicle: saline): 150 % of control | T/C (dose: 4.0 mg/kg/injection, schedule: Q02DX005 (sc), vehicle: saline): 227 % of control | T/C (dose: 8.0 mg/kg/injection, schedule: Q01DX010 (sc), vehicle: saline): 361 % of control | T/C (dose: 8.0 mg/kg/injection, schedule: Q02DX005 (sc), vehicle: saline): 159 % of control | T/C (dose: 16.0 mg/kg/injection, schedule: Q01DX010 (sc), vehicle: saline): 63 % of control | T/C (dose: 16.0 mg/kg/injection, schedule: Q02DX005 (sc), vehicle: saline): 253 % of control | T/C (dose: 32.0 mg/kg/injection, schedule: Q01DX010 (sc), vehicle: saline): 35 % of control | T/C (dose: 32.0 mg/kg/injection, schedule: Q02DX005 (sc), vehicle: saline): 68 % of control

N=c1ccn2c(n1)OC1C(O)C(CO)OC12 (stereo not drawn)
T/C [6]: 67 % of control | T/C (dose: 800.0 mg/kg/injection, schedule: Q04DX003 (sc), vehicle: saline): 48 % of control | T/C (dose: 1600.0 mg/kg/injection, schedule: Q04DX003 (sc), vehicle: saline): 16 % of control | T/C (dose: 3200.0 mg/kg/injection, schedule: Q04DX003 (sc), vehicle: saline): 8 % of control

CN(C)c1ccc2c(NCCCCCCNc3ccnc4cc(N(C)C)ccc34)ccnc2c1
T/C (dose: 37.5 mg/kg/injection, schedule: Q04DX003 (sc), vehicle: distilled water + Tween-80 + alcohol): 122 % of control | T/C (dose: 75.0 mg/kg/injection, schedule: Q04DX003 (sc), vehicle: distilled water + Tween-80 + alcohol): 80 % of control | T/C (dose: 150.0 mg/kg/injection, schedule: Q04DX003 (sc), vehicle: distilled water + Tween-80 + alcohol): 75 % of control

OC1OC2COC(c3ccccc3)OC2C(O)C1O (stereo not drawn)
T/C [5]: 101 % of control | T/C (dose: 600.0 mg/kg/injection, schedule: Q04DX003 (sc), vehicle: water): 117 % of control | T/C (dose: 1200.0 mg/kg/injection, schedule: Q04DX003 (sc), vehicle: water): 105 % of control | T/C (dose: 2400.0 mg/kg/injection, schedule: Q04DX003 (sc), vehicle: water): 90 % of control

C[n+]1c(-c2cccc3ccccc23)c2cc(N)ccc2c2ccccc21
T/C (dose: 1.5 mg/kg/injection, schedule: Q04DX003 (sc), vehicle: saline): 164 % of control | T/C (dose: 6.0 mg/kg/injection, schedule: Q04DX003 (sc), vehicle: saline): 113 % of control | T/C (dose: 24.0 mg/kg/injection, schedule: Q04DX003 (sc), vehicle: saline): 112 % of control | T/C (dose: 48.0 mg/kg/injection, schedule: Q04DX003 (sc), vehicle: saline): 78 % of control

NNC(=S)N/N=C/c1ccccn1
T/C (dose: 15.0 mg/kg/injection, schedule: Q04DX003 (sc), vehicle: saline with Tween-80): 78 % of control | T/C (dose: 30.0 mg/kg/injection, schedule: Q04DX003 (sc), vehicle: saline with Tween-80): 95 % of control | T/C (dose: 60.0 mg/kg/injection, schedule: Q04DX003 (sc), vehicle: saline with Tween-80): 94 % of control

O=C1C2CC(Cl)C(SSC3CC4C(=O)N(SC(Cl)(Cl)C(Cl)Cl)C(=O)C4CC3Cl)CC2C(=O)N1SC(Cl)(Cl)C(Cl)Cl (stereo not drawn)
T/C (dose: 75.0 mg/kg/injection, schedule: Q04DX003 (ip), vehicle: Klucel (hydroxypropylcellulose) (HPC)): 83 % of control | T/C (dose: 150.0 mg/kg/injection, schedule: Q04DX003 (ip), vehicle: Klucel (hydroxypropylcellulose) (HPC)): 102 % of control | T/C (dose: 300.0 mg/kg/injection, schedule: Q04DX003 (ip), vehicle: Klucel (hydroxypropylcellulose) (HPC)): 76 % of control | T/C (dose: 600.0 mg/kg/injection, schedule: Q04DX003 (ip), vehicle: Klucel (hydroxypropylcellulose) (HPC)): 48 % of control

CCOC(C)C(/C=N/NC(N)=S)=NNC(N)=S (stereo not drawn)
T/C [2]: 231 % of control | T/C [4]: 233 % of control | T/C (dose: 800.0 mg/kg/injection, schedule: Q01DX010 (sc), vehicle: saline with Tween-80): 78 % of control
